Measured values taken from patent US11214803B2, “Modulators of YAP1 expression” (Ionis Pharmaceuticals, Inc., priority 2019, dated 2022).
Strand notation (5' to 3'): a small letter for the sugar, then the base; units joined by * are phosphorothioate-linked, units joined directly phosphodiester-linked; [ ] holds rarer units or linkages, { } end groups; capitals alone tell only the bases. k = constrained ethyl (cEt); [5mC] = 5-methylcytosine; d = 2'-deoxy (DNA)

Tested on: Yap1 mRNA
Assay: Antisense inhibition of human Yap1 in A-431 cells by cEt gapmers, single dose (Example 2, RTS4814)
Assay type: cell-based
Procedure, shortened: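 A-431 cells (5,000/well) took up 2,000 nM 3-10-3 cEt gapmer by free uptake for ~48 h. Yap1 mRNA was quantified by qRT-PCR with primer probe set RTS4814, normalized to RIBOGREEN total RNA, and reported as % of untreated control.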

[1] = Table 5, A-431 cells, 5,000 cells per well, free uptake, 2,000 nM modified oligonucleotide, approx. 48 hours, RTS4814, normalized to RIBOGREEN, Yap1 mRNA relative to untreated control cells
[2] = Table 21, Yap1 mRNA, percent of untreated control, 3-10-3 cEt gapmers targeting SEQ ID NO.: 1 and 2
[3] = Table 25, Yap1 mRNA as percent of untreated control, 3-10-3 cEt gapmers targeting SEQ ID NO.: 1, and 2
[4] = Table 24, Yap1 mRNA as percent of untreated control, 3-10-3 cEt gapmers targeting SEQ ID NO.: 1, and 2
[5] = Table 33, Yap1 mRNA, percent of untreated control, 3-10-3 cEt gapmers targeting SEQ ID NO.: 1, and 2
[6] = Table 19, A-431 cells, 5,000 cells per well, free uptake, 2,000 nM modified oligonucleotide, approx. 48 hours, RTS4814, normalized to RIBOGREEN, Yap1 mRNA as percent of untreated control
[7] = Yap1 mRNA as percent of untreated control, A-431 cells, 3-10-3 cEt gapmers targeting SEQ ID NO.: 1, and 2, Table 31
[8] = Table 18, A-431 cells, 5,000 cells per well, free uptake, 2,000 nM modified oligonucleotide, approx. 48 hours, RTS4814, normalized to RIBOGREEN, Yap1 mRNA as percent of untreated control
[9] = A-431 cells, 5,000 cells per well, free uptake, 2,000 nM modified oligonucleotide, approx. 48 hours, RTS4814, normalized to RIBOGREEN, Table 4, asterisk (*) = targets amplicon region of primer probe set
[10] = Table 20, Yap1 mRNA, percent of untreated control, 3-10-3 cEt gapmers targeting SEQ ID NO.: 1 and 2
[11] = Table 22, Yap1 mRNA as percent of untreated control, 3-10-3 cEt gapmers, single dose
[12] = Table 6, A-431 cells, 5,000 cells per well, free uptake, 2,000 nM modified oligonucleotide, approx. 48 hours, RTS4814, normalized to RIBOGREEN, Yap1 mRNA relative to untreated control cells

Substance: 716362 (kA*kG*kG*d[5mC]*dG*dG*d[5mC]*dT*dG*d[5mC]*d[5mC]*d[5mC]*dT*kT*kG*kG; antisense) [Compound 716362]
- YAP1 (% UTC) [1]: 94 % UTC

Substance: 1074695 (antisense k[5mC]*k[5mC]*k[5mC]*d[5mC]*d[5mC]*dT*dA*dA*dA*dT*d[5mC]*dT*dT*k[5mC]*kA*k[5mC]) [Compound 1074695]
- YAP1 (% UTC) [2]: 49 % UTC

Substance: 1075307 (kA*kT*kT*dA*dA*dA*d[5mC]*dG*dA*dA*dA*d[5mC]*dA*k[5mC]*kG*kG; antisense) [Compound 1075307]
- YAP1 (% UTC) [3]: 28 % UTC

Substance: 1075914 (kA*kT*kT*dT*dA*dG*dG*dA*dT*dG*d[5mC]*d[5mC]*dT*kT*kT*kA; antisense) [Compound 1075914]
- YAP1 (% UTC) [4]: 14 % UTC

Substance: 1075881 (kG*kA*kT*dT*dA*dA*d[5mC]*dT*dA*d[5mC]*dA*d[5mC]*d[5mC]*kA*k[5mC]*kG; antisense) [Compound 1075881]
- YAP1 (% UTC) (Table 23, Yap1 mRNA as percent of untreated control, 3-10-3 cEt gapmers, single dose): 23 % UTC

Substance: 1074759 (k[5mC]*kA*kA*d[5mC]*d[5mC]*dA*dA*dG*dA*dA*dG*d[5mC]*dA*kG*kT*kT; antisense) [Compound 1074759]
- YAP1 (% UTC) [2]: 43 % UTC

Substance: 1075411 (antisense k[5mC]*kA*kA*dA*dA*dA*dG*dG*dG*dT*dA*dA*dG*kG*k[5mC]*kA) [compound 1075411]
- YAP1 (% UTC) [5]: 39 % UTC

Substance: 1075909 (kA*kA*kA*dT*dA*dA*dG*dG*dA*dG*dT*dA*dG*kG*kT*kG; antisense) [Compound 1075909]
- YAP1 (% UTC) [6]: 93 % UTC

Substance: 1075338 (k[5mC]*k[5mC]*k[5mC]*dA*dA*dA*dA*dA*d[5mC]*dT*dA*dG*d[5mC]*kT*kT*kA; antisense) [Compound 1075338]
- YAP1 (% UTC) [4]: 56 % UTC

Substance: 1074897 (antisense kG*kG*k[5mC]*dA*dA*dA*dG*dT*dT*d[5mC]*d[5mC]*dT*dA*kT*kG*k[5mC]) [compound 1074897]
- YAP1 (% UTC) [7]: 76 % UTC

Substance: 1076036 (k[5mC]*kG*kT*dA*dA*dT*dT*dA*dG*dA*dA*dA*d[5mC]*kT*kT*kG; antisense) [Compound 1076036]
- YAP1 (% UTC) [8]: 19 % UTC

Substance: 1074355 (antisense kA*kG*kG*dG*dA*d[5mC]*dA*d[5mC]*dT*dG*dT*dA*dG*k[5mC]*kT*kG) [compound 1074355]
- YAP1 (% UTC) [5]: 55 % UTC

Substance: 716370 (k[5mC]*kA*kG*dT*dG*d[5mC]*d[5mC]*dT*dG*d[5mC]*dA*dT*d[5mC]*kA*kG*kT; antisense) [Compound 716370]
- YAP1 (% UTC) [9]: 25 % UTC

Substance: 1075015 (antisense k[5mC]*kA*kG*dA*dA*dT*dA*dA*dG*dT*dA*dT*dG*kA*kT*kT) [Compound 1075015]
- YAP1 (% UTC) [2]: 55 % UTC

Substance: 1075718 (k[5mC]*k[5mC]*kA*d[5mC]*dT*dA*dA*dA*dA*d[5mC]*d[5mC]*dA*dA*kG*kT*kT; antisense) [Compound 1075718]
- YAP1 (% UTC) [10]: 48 % UTC

Substance: 1075563 (k[5mC]*k[5mC]*kA*dT*dA*dT*dA*dA*d[5mC]*d[5mC]*dA*dG*dT*kT*kT*kT; antisense) [Compound 1075563]
- YAP1 (% UTC) [3]: 12 % UTC

Substance: 1075179 (antisense kA*kA*kT*dT*dA*dG*d[5mC]*d[5mC]*dG*dG*dT*d[5mC]*d[5mC]*k[5mC]*kA*kG) [Compound 1075179]
- YAP1 (% UTC) [3]: 107 % UTC

Substance: 1075827 (kA*kT*kA*d[5mC]*dT*dA*dT*dA*d[5mC]*d[5mC]*dT*dA*dA*kG*kG*kA; antisense) [compound 1075827]
- YAP1 (% UTC) [5]: 60 % UTC

Substance: 1074950 (antisense kA*kT*k[5mC]*dA*dG*dG*dT*dT*dA*dA*dG*dT*dG*kA*kT*kT) [Compound 1074950]
- YAP1 (% UTC) [10]: 120 % UTC

Substance: 1075172 (antisense k[5mC]*kT*kT*dT*dA*d[5mC]*dA*dT*dG*dA*dA*d[5mC]*dT*kG*kA*kT) [Compound 1075172]
- YAP1 (% UTC) [8]: 14 % UTC

Substance: 1075526 (kT*kT*kT*dA*dA*dT*dT*dA*dA*dG*dG*dG*d[5mC]*k[5mC]*k[5mC]*kA; antisense) [Compound 1075526]
- YAP1 (% UTC) [10]: 110 % UTC

Substance: 1075429 (antisense k[5mC]*kT*kT*dT*dA*d[5mC]*dT*dA*dT*d[5mC]*dT*dG*dG*kG*kT*k[5mC]) [Compound 1075429]
- YAP1 (% UTC) [6]: 23 % UTC

Substance: 1075283 (antisense k[5mC]*kG*kA*dA*dT*dA*dT*dA*dG*dA*dA*dA*dA*kA*kT*kG) [compound 1075283]
- YAP1 (% UTC) [5]: 90 % UTC

Substance: 716502 (k[5mC]*kA*k[5mC]*dA*dG*dT*dG*dA*dT*dT*dG*d[5mC]*dA*kT*kT*kT; antisense) [Compound 716502]
- YAP1 (% UTC) [9]: 11 % UTC

Substance: 716437 (k[5mC]*k[5mC]*kA*dG*dT*dA*dA*dA*dT*d[5mC]*dA*dT*dG*kT*kT*kT; antisense) [Compound 716437]
- YAP1 (% UTC) [1]: 41 % UTC

Substance: 716553 (kA*kT*k[5mC]*d[5mC]*dA*d[5mC]*d[5mC]*dT*dG*dA*dG*d[5mC]*dA*k[5mC]*kT*k[5mC]; antisense) [Compound 716553]
- YAP1 (% UTC) [9]: 54 % UTC

Substance: 1076360 (k[5mC]*kT*kA*dT*dT*dT*dA*dT*d[5mC]*d[5mC]*dT*dA*dG*kT*kT*kA; antisense) [Compound 1076360]
- YAP1 (% UTC) [11]: 59 % UTC

Substance: 716492 (kA*kA*kA*d[5mC]*dA*d[5mC]*dA*dG*dA*dG*dG*dT*dG*k[5mC]*kT*kA; antisense) [Compound 716492]
- YAP1 (% UTC) [12]: 72 % UTC

Substance: 716438 (kA*kT*kT*dT*dT*dT*dG*dG*d[5mC]*dT*dT*dG*dT*k[5mC]*kA*kG; antisense) [Compound 716438]
- YAP1 (% UTC) [12]: 32 % UTC

Substance: 1075076 (antisense k[5mC]*kA*kT*dA*dA*d[5mC]*dA*dT*d[5mC]*dA*dT*dG*dG*kA*kA*kG) [Compound 1075076]
- YAP1 (% UTC) [8]: 25 % UTC

Substance: 716419 (kT*kT*kT*d[5mC]*d[5mC]*dG*dG*dT*dG*d[5mC]*dA*dT*dG*kT*kG*kT; antisense) [Compound 716419]
- YAP1 (% UTC) [1]: 36 % UTC

Substance: 1075496 (antisense kT*kT*kA*dT*dA*dT*dA*dA*dT*dG*d[5mC]*dA*dG*kG*k[5mC]*kT) [Compound 1075496]
- YAP1 (% UTC) [11]: 22 % UTC

Substance: 1074308 (antisense kG*k[5mC]*kA*dT*dT*dG*d[5mC]*d[5mC]*dT*dG*dT*dG*dG*k[5mC]*k[5mC]*kT) [Compound 1074308]
- YAP1 (% UTC) [8]: 132 % UTC

Substance: 1076336 (antisense k[5mC]*kA*kT*dT*dA*d[5mC]*d[5mC]*dA*d[5mC]*d[5mC]*dT*dA*dT*kA*kA*kG) [compound 1076336]
- YAP1 (% UTC) (Yap1 mRNA as percent of untreated control, A-431 cells, 3-10-3 cEt gapmers targeting SEQ ID NO.: 1, and 2, Table 30): 31 % UTC

Substance: 716363 (k[5mC]*kG*kG*dA*d[5mC]*dG*dG*d[5mC]*dG*dG*dG*d[5mC]*d[5mC]*k[5mC]*kT*kG; antisense) [Compound 716363]
- YAP1 (% UTC) [12]: 103 % UTC

Substance: 1074724 (antisense kG*kG*kG*dT*dA*dA*dA*dG*dG*dA*dA*dG*dA*kT*k[5mC]*kT) [Compound 1074724]
- YAP1 (% UTC) [8]: 22 % UTC

Substance: 1075978 (kA*kG*kA*dT*dT*dA*dA*dA*dA*dG*dT*d[5mC]*dG*kG*kG*k[5mC]; antisense) [Compound 1075978]
- YAP1 (% UTC) [4]: 11 % UTC

Substance: 716346 (kT*kT*kT*d[5mC]*d[5mC]*d[5mC]*dT*dG*dG*d[5mC]*dG*dG*d[5mC]*kG*kG*k[5mC]; antisense) [Compound 716346]
- YAP1 (% UTC) [9]: 77 % UTC

Substance: 716554 (kA*kT*kG*d[5mC]*dT*dT*dG*d[5mC]*dG*dA*dG*dG*dA*kT*kA*kA; antisense) [Compound 716554]
- YAP1 (% UTC) [1]: 30 % UTC

Substance: 1075077 (antisense kT*kA*kT*dA*d[5mC]*dG*dG*dT*d[5mC]*d[5mC]*dA*dT*dA*kA*k[5mC]*kA) [Compound 1075077]
- YAP1 (% UTC) [6]: 35 % UTC

Substance: 1074216 (antisense kG*kA*kT*dT*dT*dG*dG*dG*d[5mC]*dT*d[5mC]*d[5mC]*dG*kG*k[5mC]*kG) [Compound 1074216]
- YAP1 (% UTC) [11]: 58 % UTC

Substance: 1075153 (kA*kT*kT*dA*dT*dA*dA*dT*dG*dG*dG*dA*dG*kG*kA*kT; antisense) [compound 1075153]
- YAP1 (% UTC) [7]: 38 % UTC

Substance: 1076071 (kT*kA*kT*dT*dA*dG*dT*dA*dA*dT*dG*d[5mC]*dA*k[5mC]*kA*kG; antisense) [Compound 1076071]
- YAP1 (% UTC) [2]: 14 % UTC
